Substitutions are numbered along the chain they refer to. Like-named read-outs stand apart in the source and are kept apart here.
How the values were obtained:
[1] = target: T1, RET (658-1114) (Homo sapiens, UniProt P07949); experiment: HiBiT-Degradation, RET wild-type degradation assay (Nano-Glo HiBiT Lytic), 293T.144 cells; format: cell-based; details: for Emax / DC50: 6.0 hours; for Emax: read-out: 293T.144 RET (658-1114) 6.0 hours (Emax); for DC50: read-out: 293T.144 RET (658-1114) 6.0 hours (DC50)
T1 construct: 658-1114; expressed in transfected cells; host or cells: 293T.144 (293T cells, generated in-house)
T1 sequence (P07949 658-1114): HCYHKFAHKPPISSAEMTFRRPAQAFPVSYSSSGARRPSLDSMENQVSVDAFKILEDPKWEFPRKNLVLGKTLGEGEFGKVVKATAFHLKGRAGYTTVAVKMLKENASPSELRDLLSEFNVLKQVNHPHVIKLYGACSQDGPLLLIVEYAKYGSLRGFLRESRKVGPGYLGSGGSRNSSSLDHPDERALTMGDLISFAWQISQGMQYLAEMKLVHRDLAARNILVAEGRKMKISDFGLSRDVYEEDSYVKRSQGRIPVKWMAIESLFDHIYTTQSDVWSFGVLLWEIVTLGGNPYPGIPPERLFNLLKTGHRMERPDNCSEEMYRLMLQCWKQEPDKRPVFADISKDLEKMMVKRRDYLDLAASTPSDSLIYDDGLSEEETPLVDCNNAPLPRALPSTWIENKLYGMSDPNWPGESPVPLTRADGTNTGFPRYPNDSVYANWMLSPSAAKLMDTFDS
Summary of the method: (§1)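 HEK293T lines stably expressing HiBiT-tagged RET kinase domain (WT: 293T.144; G810R: 293T.165) were treated with degraders for 6 h in duplicate, 11-point half-log series from 10 μM top dose. Lysis with Nano-Glo HiBiT Lytic reagent, luminescence read; DC50 and Emax (% remaining protein) derived from dose-response curves.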

[2] = target: T2, RET(KD: 658-1114 G810R) (Homo sapiens, UniProt P07949, G810R); experiment: HiBiT-Degradation, RET G810R degradation assay (Nano-Glo HiBiT Lytic), 293T.165 cells; format: cell-based; details: for Emax / DC50: 6.0 hours; for Emax: % remaining protein, read-out: 293T.165 RET(KD: 658-1114 G810R) 6.0 hours (Emax); for DC50: read-out: 293T.165 RET(KD: 658-1114 G810R) 6.0 hours (DC50)
T2 construct: 658-1114; expressed in transfected cells; host or cells: 293T.165 (293T cells, generated in-house)
T2 sequence (P07949 658-1114 G810R): T1 sequence (P07949 658-1114) with G153R
Summary of the method: as §1

[3] = half-maximal degradation concentration

| SMILES | 293T.144 RET (658-1114) 6.0 hours (IP) [nM] [1] | Emax ([1]; % remaining protein) [%] | DC50 [1, 3] [nM] | 293T.165 RET(KD: 658-1114 G810R) 6.0 hours (IP) [nM] [2] | Emax [2] [%] | DC50 [2, 3] [nM] | 293T.144 RET (658-1114) 6.0 hours (IP) [nM] ([1]; HiBiT-Degradation) | DC50 ([1]; HiBiT-Degradation) [nM] | Emax ([1]; HiBiT-Degradation) [%] | 293T.165 RET(KD: 658-1114 G810R) 6.0 hours (Emax) ([2]; HiBiT-Degradation) | 293T.165 RET(KD: 658-1114 G810R) 6.0 hours (IP) [nM] ([2]; HiBiT-Degradation) | DC50 ([2]; HiBiT-Degradation) [nM] |
| --- | --- | --- | --- | --- | --- | --- | --- | --- | --- | --- | --- | --- |
| COc1cc(N2CCN([C@H]3CC[C@H](n4cc(-c5cn6ncc(C#N)c6c(-c6ccc(N7CC8COCC(C7)N8C(=O)OC(C)(C)C)nc6)n5)cn4)CC3)CC2)c(F)cc1NC1CCC(=O)NC1=O (relative stereo) [Compound 163, tert-butyl 7-[5-[3-cyano-6-[1-[4-[4-[4-[(2,6-dioxo-3-piperidyl)amino]-2-fluoro-5-methoxy-phenyl]piperazin-1-yl]cyclohexyl]pyrazol-4-yl]pyrazolo[1,5-a]pyrazin-4-yl]-2-pyridyl]-3-oxa-7,9-diazabicyclo[3.3.1]nonane-9-carboxylate] | ++++ (<50 nM = ++++) | < 30 | < 50 | ++++ (<50 nM = ++++) | < 30 | < 100 |  |  |  |  |  |  |
| N#Cc1cnn2cc(-c3cnn([C@H]4CC[C@@H](N5CCN(c6c(F)cc(NC7CCC(=O)NC7=O)cc6F)CC5)CC4)c3)nc(-c3ccc(N4CCC5(CC4)CCN5c4nccc(Cl)n4)nc3)c12 (single isomer, unassigned) [Compound 204, 4-(6-(1-(4-Chloropyrimidin-2-yl)-1,7-diazaspiro[3.5]nonan-7-yl)pyridin-3-yl)-6-(1-((1s, 4s)-4-(4-(4-((2,6-dioxopiperidin-3-yl)amino)-2,6-difluorophenyl)piperazin-1-yl)cyclohexyl)-1H-pyrazol-4-yl)pyrazolo[1,5-a]pyrazine-3-carbonitrile] | ++++ (<50 nM = ++++) | < 30 | < 50 | +++ (<100 nM = +++) | < 30 | < 100 |  |  |  |  |  |  |
| CC(C)NC(=O)C1(C)CCN(c2ccc(-c3cc(-c4cnn(C5CCC6(CC5)CN(C(=O)CN5CCC(c7ccc(NC8CCC(=O)NC8=O)cc7)CC5)C6)c4)cn4ncc(C#N)c34)cn2)CC1 (stereo not shown) [Compound 196, 1-(5-(3-cyano-6-(1-(2-(2-(4-(4-((2,6-dioxopiperidin-3-yl)amino)phenyl)piperidin-1-yl)acetyl)-2-azaspiro[3.5]nonan-7-yl)-1H-pyrazol-4-yl)pyrazolo[1,5-a]pyridin-4-yl)pyridin-2-yl)-N-isopropyl-4-methylpiperidine-4-carboxamide] | ++++ (<50 nM = ++++) | < 30 | < 50 | ++++ (<50 nM = ++++) | < 30 | < 100 |  |  |  |  |  |  |
| N#Cc1cnn2cc(-c3cnn([C@H]4CC[C@H](N5CCC(c6ccc(NC7CCC(=O)NC7=O)cc6F)CC5)CC4)c3)nc(-c3ccc(N4CC5COCC(C4)N5Cc4ccccn4)nc3)c12 (single isomer, unassigned) [Compound 154, 6-[1-[4-[4-[4-[(2,6-dioxo-3-piperidyl)amino]-2-fluoro-phenyl]-1-piperidyl]cyclohexyl]pyrazol-4-yl]-4-[6-[9-(2-pyridylmethyl)-3-oxa-7,9-diazabicyclo[3.3.1]nonan-7-yl]-3-pyridyl]pyrazolo[1,5-a]pyrazine-3-carbonitrile] | ++++ (<50 nM = ++++) | < 30 | < 50 | ++++ (<50 nM = ++++) | < 30 | < 50 |  |  |  |  |  |  |
| N#Cc1cnn2cc(-c3ccc(N4CCN(C(=O)CN5CCC(c6ccc(NC7CCC(=O)NC7=O)cc6)CC5)CC4)cc3)cc(-c3ccc(N4CCOCC4)nc3)c12 (stereo not shown) [Compound 24, 6-(4-(4-(2-(4-(4-((2,6-Dioxopiperidin-3-yl)amino)phenyl)piperidin-1-yl)acetyl)piperazin-1-yl)phenyl)-4-(6-morpholinopyridin-3-yl)pyrazolo[1,5-a]pyridine-3-carbonitrile] |  |  |  |  | < 50 | < 100 | ++++ (< 50 nM = ++++) | < 50 | < 30 | +++ (<50% = +++) | ++++ (< 50 nM = ++++) | < 100 |
| CC(=O)N1CCN(c2ccc(-c3cc(-c4ccc(N5CCN(C(=O)CN6CCC(c7ccc(NC8CCC(=O)NC8=O)cc7)CC6)CC5)cc4)cn4ncc(C#N)c34)cn2)CC1 (stereo not shown) [Compound 41, 4-[6-(4-acetylpiperazin-1-yl)-3-pyridyl]-6-[4-[4-[2-[4-[4-[(2,6-dioxo-3-piperidyl)amino]phenyl]-1-piperidyl]acetyl]piperazin-1-yl]phenyl]pyrazolo[1,5-a]pyridine-3-carbonitrile] |  |  |  |  | < 50 | < 100 | ++++ (< 50 nM = ++++) | < 50 | < 30 | +++ (<50% = +++) | ++++ (< 50 nM = ++++) | < 100 |

Next, values leading:

| 293T.144 RET (658-1114) 6.0 hours (IP) [nM] [1] | Emax ([1]; % remaining protein) [%] | DC50 [1, 3] [nM] | 293T.165 RET(KD: 658-1114 G810R) 6.0 hours (IP) [nM] [2] | Emax [2] [%] | DC50 [2, 3] [nM] | 293T.144 RET (658-1114) 6.0 hours (IP) [nM] ([1]; HiBiT-Degradation) | DC50 ([1]; HiBiT-Degradation) [nM] | Emax ([1]; HiBiT-Degradation) [%] | 293T.165 RET(KD: 658-1114 G810R) 6.0 hours (Emax) ([2]; HiBiT-Degradation) | 293T.165 RET(KD: 658-1114 G810R) 6.0 hours (IP) [nM] ([2]; HiBiT-Degradation) | DC50 ([2]; HiBiT-Degradation) [nM] | SMILES |
| --- | --- | --- | --- | --- | --- | --- | --- | --- | --- | --- | --- | --- |
| ++++ (<50 nM = ++++) | < 30 | < 50 | ++++ (<50 nM = ++++) | < 30 | < 100 |  |  |  |  |  |  | CCC1(C(=O)Nc2ccccc2)CCN(c2ccc(-c3nc(-c4cnn(C5CCN(C(=O)CC6(O)CCN(c7ccc(NC8CCC(=O)NC8=O)cc7Cl)CC6)CC5)c4)cn4ncc(C#N)c34)cn2)CC1 (stereo not shown) [Compound 98, 1-[5-[6-[1-[1-[2-[1-[2-chloro-4-[(2,6-dioxo-3-piperidyl)amino]phenyl]-4-hydroxy-4-piperidyl]acetyl]-4-piperidyl]pyrazol-4-yl]-3-cyano-pyrazolo[1,5-a]pyrazin-4-yl]-2-pyridyl]-4-ethyl-N-phenyl-piperidine-4-carboxamide] |
| ++++ (<50 nM = ++++) | < 30 | < 50 | +++ (<100 nM = +++) | < 30 | < 100 |  |  |  |  |  |  | CCC1(C(=O)NC2CCC2)CCN(c2ccc(-c3nc(-c4cnn(C5CCN([C@@H]6CCN(c7ccc(N[C@@H]8CCC(=O)NC8=O)cc7F)CC6(F)F)CC5)c4)cn4ncc(C#N)c34)cn2)CC1 (single isomer, unassigned) [Compound 192] |
| ++++ (<50 nM = ++++) | < 30 | < 50 | ++++ (<50 nM = ++++) | < 30 | < 50 |  |  |  |  |  |  | CCC1(C(=O)NC[C@H]2C[C@H](F)C2)CCN(c2ccc(-c3nc(-c4cnn([C@H]5CC[C@H](N6CCN(c7ccc(NC8CCC(=O)NC8=O)cc7F)CC6)CC5)c4)cn4ncc(C#N)c34)cn2)CC1 (stereo partly shown) [Compound 207, 1-[5-[3-cyano-6-[1-[4-[4-[4-[(2,6-dioxo-3-piperidyl)amino]-2-fluoro-phenyl]piperazin-1-yl]cyclohexyl]pyrazol-4-yl]pyrazolo[1,5-a]pyrazin-4-yl]-2-pyridyl]-4-ethyl-N-[(3-fluorocyclobutyl)methyl]piperidine-4-carboxamide] |
| ++++ (<50 nM = ++++) | < 30 | < 50 | ++++ (<50 nM = ++++) | < 30 | < 50 |  |  |  |  |  |  | N#Cc1cnn2cc(-c3cnn(C4CCN(C(=O)CC5(O)CCN(c6ccc(NC7CCC(=O)NC7=O)cc6F)CC5)CC4)c3)nc(-c3ccc(N4CCC(Oc5ccccn5)CC4)nc3)c12 (stereo not shown) [Compound 109, 6-[1-[1-[2-[1-[4-[(2,6-dioxo-3-piperidyl)amino]-2-fluoro-phenyl]-4-hydroxy-4-piperidyl]acetyl]-4-piperidyl]pyrazol-4-yl]-4-[6-[4-(2-pyridyloxy)-1-piperidyl]-3-pyridyl]pyrazolo[1,5-a]pyrazine-3-carbonitrile] |

Source: patent publication US12661410B2, “Compounds for targeted degradation of RET” (C4 Therapeutics, Inc., priority 2020, dated 2026)
